These molecules were tested on HCV replicon cells (assay: HCV EC50 determination: replicon luciferase assay). Conditions: Hepatitis C virus, 72 h, 3 days incubation, luciferase activity.
Type: cell-based
Protocol: Replicon cells were seeded in 96-well plates at a density of 8×10^3 cells per well in 100 μL of culture medium, excluding Geneticin. Compound was serially diluted in 100% DMSO and then added to the cells at a 1:200 dilution, achieving a final concentration of 0.5% DMSO and a total volume of 200 μL. Plates were incubated at 37° C. for 3 days, after which culture medium was removed and cells were lysed in lysis buffer provided by Promega's luciferase assay system. Following the manufacturer's instruction, 100 μL of luciferase substrate was added to the lysed cells and luciferase activity was measured in a TopCount luminometer.

| SMILES | EC50 [µM] |
| --- | --- |
| CO[C@@]1(c2ccc3c(N)ncnn23)O[C@H](CO)[C@@H](O)[C@H]1O [Compound 12] | 1 to 10 |
| C[C@@]1(O)[C@H](O)[C@@H](CO)O[C@@]1(C#N)c1ccc2c(N)ncnn12 [Compound 5] | 10 to 100 |
| C[C@@]1(c2ccc3c(N)ncnn23)O[C@H](CO)[C@@H](O)[C@@]1(C)O [Compound 4] | 10 to 100 |
| CO[C@@]1(c2ccc3c(N)ncnn23)O[C@H](CO)[C@@H](O)[C@@]1(C)O [Compound 3] | 10 to 100 |
| C[C@@]1(O)[C@H](O)[C@@H](CO)OC1(O)c1ccc2c(N)ncnn12 (some centres unmarked) [Compound 2] | 10 to 100 |
| N#C[C@@]1(c2ccc3c(N)ncnn23)O[C@H](CO)[C@@H](O)[C@H]1O [Compound 13] | 1 to 10 |
| CC(C)(C)C(=O)SCCOP(=O)(OCCSC(=O)C(C)(C)C)OC[C@H]1O[C@@](C#N)(c2ccc3c(N)ncnn23)[C@](C)(O)[C@@H]1O [Compound 6] | < 1 |

These molecules were tested against T1, HCV Δ21 NS5b polymerase (Hepatitis C virus genotype 1b, UniProt Q9WMX2) (assay: HCV IC50 determination: NS5b polymerase assay). Conditions: not given.
T1 construct: 75 nM HCV Δ21 NS5b polymerase
Type: biochemical
Protocol: Assay Protocol: NS5b polymerase assay (40 μL) was assembled by adding 28 μL polymerase mixture (final concentration: 50 mM Tris-HCl at pH 7.5, 10 mM KCL, 5 mM MgCl2, 1 mM DTT, 10 mM EDTA, 4 ng/μL of RNA template, and 75 nM HCV Δ21 NS5b polymerase) to assay plates followed by 4 μL of compound dilution. The polymerase and compound were pre-incubated at 35° C. for 10 minute before the addition of 8 μL of nucleotide substrate mixture (33P-α-labeled competing nucleotide at KM and 0.5 mM of the remaining three nucleotides). The assay plates were covered and incubated at 35° C. for 90 mM. Reactions were then filtered through 96-well DEAE-81 filter plates via vacuum. The filter plates were then washed under vacuum with multiple volumes of 0.125 M NaHPO4, water, and ethanol to remove unincorporated label. Plates were then counted on TopCount to assess the level of product synthesis over background controls. The IC50 value is determined using Prism fitting program.

| SMILES | IC50 [µM] |
| --- | --- |
| C[C@@]1(O)[C@H](O)[C@@H](COP(=O)(O)O)O[C@@]1(C#N)c1ccc2c(N)ncnn12 [Compound 17] | < 1 |
